Laboratory results as given in patent US8314098B2, “Pyrazolo-pyrimidine compounds” (Ajinomoto Co., Inc., priority 2008, dated 2012).
pIC50: −log10 of the molar value.

What was measured:
Format in all cases: cell-based
[1] = tested on: IL-12p70 (the complex of IL-12p35 and p40); test: IL-12p70 production inhibition in whole blood of mouse (IFN-γ/SAC stimulation, ELISA); settings: mouse (Balb/c) whole blood, EDTA, 100 ng/mL mouse IFN-γ + 1.25% SAC, overnight; TFA salts tested where prepared as such
Experimental: The blood was recovered from the mice (female Balb/c mice) (containing added EDTA) and it was used for the evaluation. To a cell culture medium, there were added 100 ng/mL of mouse interferon-γ, 1.25% (v/v) of a liquid containing killed cells derived from Staphylococcus aureus Cowan I strain (SAC) and a candidate compound, the resulting mixture was diluted to a volume equivalent to the blood and then the diluted medium was cultivated overnight. After the completion of the cultivation, the amount of IL-12p70 (the complex of IL-12p35 and p40) was quantitatively determined according to the ELISA assays while making use of the recovered supernatant of the culture medium and the 50% production-inhibitory concentrations (IC50) were calculated for Compounds 38, 80, 82, 83, 84, 85, 87, 90 and 91. (see Table 3).

[2] = tested on: IL-12p70 (the complex of IL-12p35 and p40); test: IL-12p70 production inhibition in macrophages derived from mouse abdomen (IFN-γ/SAC stimulation, ELISA); settings: Macrophage; mouse (Balb/c) abdominal macrophages, 100 ng/mL mouse IFN-γ + 0.05% SAC, overnight; TFA salts tested where prepared as such; read-out: IL-12p70-Inhibitory Activity IC50
Experimental: (§1) One milliliter each of a 3% (w/v) thioglycolate solution was intraperitoneally administered to mice (female Balb/c mice), the abdominal cells of each mouse were recovered after 5 or 6 days from the administration of the thioglycolate solution and the adhesive cells were collected and used in the exaluation procedures. To a culture medium containing such adhesive cells, there were added 100 ng/mL of mouse interferon-γ and a 0.05% (v/v) liquid containing killed cells derived from Staphylococcus aureus Cowan I strain (SAC) and a candidate compound and then the mixture was cultivated overnight. After the completion of the cultivation, the survival ratios were determined, there were quantitatively determined the quantities of IL-12p70 (the complex of IL-12p35 and p40) and IL-12p40 or TNF-α according to the ELISA assays while making use of the recovered supernatant of the culture medium and the 50% production-inhibitory concentration (IC50) was calculated for each case (see Table 1 and Tables 1-9 for IL-12p70 and TNF-α and Tables 1 to 10 for IL-12p40).

[3] = tested on: TNF-α; test: TNF-α production inhibition in macrophages derived from mouse abdomen (IFN-γ/SAC stimulation, ELISA); settings: Macrophage; mouse (Balb/c) abdominal macrophages, 100 ng/mL mouse IFN-γ + 0.05% SAC, overnight; TFA salts tested where prepared as such; read-out: TNF-α-Inhibitory Activity IC50
Experimental: as §1

| Structure (SMILES) | pIC50 [1] | pIC50 [2] | pIC50 [3] |
| --- | --- | --- | --- |
| C(=N\Nc1cc(N2CCOCC2)n2nc(-c3ccncc3)cc2n1)/c1coc2ccccc12 [Compound 95] | 6.09 | 7.55 |  |
| C(=N\Nc1cc(N2CCOCC2)n2nc(-c3ccncc3)cc2n1)/c1cc2ccccc2o1 [Compound 96] | 5.96 | 7.30 |  |
| C(=N\Nc1cc(N2CCOCC2)n2nc(-c3ccncc3)cc2n1)/c1ccc2[nH]ccc2c1 [Compound 104] | 5.60 | 7.00 |  |
| Cc1cccc(/C=N/Nc2cc(N3CCOCC3)n3nc(-c4cnccn4)cc3n2)c1 [Compound 90, N-(3-methyl-benzylidene)-N′-(7-morpholin-4-yl-2-pyrazin-2-yl-pyrazolo[1,5-a]pyrimidin-5-yl)-hydrazine] | 5.60 | 8.08 |  |
| C(=N\Nc1cc(N2CCOCC2)n2nc(-c3ccncc3)cc2n1)/c1cc2ccccc2s1 [Compound 108, N-benzo[b]thiophen-2-yl-methylidene-N′-(7-morpholin-4-yl-2-pyridin-4-yl-pyrazolo[1,5-a]pyrimidin-5-yl)-hydrazine] | 5.43 | 6.96 |  |
| CCc1cccc(/C=N/Nc2cc(N3CCOCC3)n3nc(-c4cnccn4)cc3n2)c1 [Compound 116, N-(3-ethyl-benzylidene)-N-(7-morpholin-4-yl-2-pyrazin-2-yl-pyrazolo[1,5-a]pyrimidin-5-yl)-hydrazine] | 5.42 | 7.31 |  |
| Cc1cccc(/C=N/Nc2cc(N3CCOCC3)n3ncc(-c4ccccn4)c3n2)c1 [Compound 87, N-(3-methyl-benzylidene)-N′-(7-morpholin-4-yl-3-pyridin-2-yl-pyrazolo[1,5-a]pyrimidin-5-yl)-hydrazine] | 5.62 |  |  |
| Cc1cccc(/C=N/Nc2cc(N3CCOCC3)n3nc(-c4cccc(Cl)c4)cc3n2)c1 [Compound 12, N-{2-(3-chloro-phenyl)-7-morpholin-4-yl-pyrazolo[1,5-a]-pyrimidin-5-yl}-N′-(3-methyl-benzylidene)-hydrazine] |  | 7.77 | < 5.00 |
| C(=N\Nc1cc(N2CCOCC2)n2nc(-c3ccnnc3)cc2n1)/c1c[nH]c2ccccc12 [Compound 97, N-(1H-indol-3-yl-methylidene)-N-(7-morpholin-4-yl-2-pyridazin-4-yl-pyrazolo[1,5-a]pyrimidin-5-yl)-hydrazine] | 5.49 | 8.08 |  |
| COCCNc1ccc(-c2cc3nc(N/N=C/c4cccc(C)c4)cc(N4CCOCC4)n3n2)cc1 [Compound 24, N-[2-{4-(2-methoxy-ethyl-amino)-phenyl}-7-morpholin-4-yl-pyrazolo[1,5-a]pyrimidin-5-yl]-N′-(3-methyl-benzylidene)-hydrazine] |  | 8.22 | < 5.00 |
| COc1ccc(C)cc1/C=N/Nc1cc(N2CCOCC2)n2nc(-c3ccccc3)cc2n1 [Compound 40, N-(2-methoxy-5-methyl-benzylidene)-N′-(7-morpholin-4-yl-2-phenyl-pyrazolo[1,5-a]pyrimidin-5-yl)-hydrazine] |  | 7.19 | < 5.00 |
| Cc1cccc(/C=N/Nc2cc(N3CCOCC3)n3nc(C)cc3n2)c1 [Compound 79, N-(3-methyl-benzylidene)-N′-(2-methyl-7-morpholin-4-yl-pyrazolo[1,5-a]pyrimidin-5-yl)-hydrazine] |  | 6.66 | < 5.00 |
| CCN(CC)c1ccc(-c2cc3nc(N/N=C/c4cccc(C)c4)cc(N4CCOCC4)n3n2)cc1 [Compound 23, N-{2-(4-diethyl-amino-phenyl)-7-morpholin-4-yl-pyrazolo-[1,5-a]pyrimidin-5-yl}-N′-(3-methyl-benzylidene)-hydrazine] |  | 7.85 | < 5.00 |
| Cc1cccc(/C=N/Nc2cc(N3CCOCC3)n3ncc(-c4ccccc4)c3n2)c1 [Compound 6, N-(3-methyl-benzylidene)-N′-(7-morpholin-4-yl-3-phenyl-pyrazolo[1,5-a]pyrimidin-5-yl)-hydrazine] |  | 6.19 | < 5.00 |
| Cc1cccc(/C=N/Nc2cc(N3CCOCC3)n3nc(-c4ccc(NN5CCOCC5)cc4)cc3n2)c1 [Compound 68] |  | 8.06 | < 5.00 |
| Cc1cccc(/C=N/Nc2cc(N3CCOCC3)n3nc(-c4ccc(N5CCOCC5)cc4)cc3n2)c1 [Compound 17, N-(3-methyl-benzylidene)-N′-{7-morpholin-4-yl-2-(4-morpholin-4-yl-phenyl)-pyrazolo[1,5-a]pyrimidin-5-yl}-hydrazine] |  | 8.40 | < 5.00 |
| Cc1cccc(/C=N/Nc2cc(N3CCOCC3)n3nc(-c4ccc(N5CCNCC5)cc4)cc3n2)c1 [Compound 21, N-(3-methyl-benzylidene)-N′-{7-morpholin-4-yl-2-(4-piperazin-1-yl-phenyl)-pyrazolo[1,5-a]pyrimidin-5-yl}-hydrazine] |  | 7.66 | < 5.00 |
| COc1cccc(/C=N/Nc2cc(N3CCOCC3)n3nc(-c4ccccc4)cc3n2)c1 [Compound 29, N-(3-methoxy-benzylidene)-N′-(7-morpholin-4-yl-2-phenyl-pyrazolo[1,5-a]pyrimidin-5-yl)-hydrazine] |  | 7.40 | < 5.00 |
| C(=N\Nc1cc(N2CCOCC2)n2nccc2n1)/c1c[nH]c2ccccc12 [Compound 10, N-(1H-indol-3-yl-methylidene)-N′-(7-morpholin-4-yl-pyrazolo[1,5-a]pyrimidin-5-yl)-hydrazine] |  | 6.78 | < 5.00 |
| Cc1cccc(/C=N/Nc2cc(N3CCOCC3)n3nc(-c4ccccc4)cc3n2)c1 [Compound 1, N-(3-methyl-benzylidene)-N′-(2-phenyl-7-morpholin-4-yl-pyrazolo[1,5-a]pyrimidin-5-yl)-hydrazine] |  | 7.72 | < 5.00 |
| Cc1cccc(/C=N/Nc2cc(N3CCOCC3)n3nc(-c4ccc(N5CCN(C(=O)OC(C)(C)C)CC5)cc4)cc3n2)c1 [Compound 19, N-[2-{4-(4-t-butoxycarbonyl-piperazin-1-yl)-phenyl}-7-morpholin-4-yl-pyrazolo[1,5-a]pyrimidin-5-yl]-N′-(3-methyl-benzylidene)-hydrazine] |  | 7.22 | < 5.00 |
| C(=N\Nc1cc(N2CCOCC2)n2ncc(-c3ccccn3)c2n1)/c1c[nH]c2ccccc12 [Compound 88, N-(1H-indol-3-yl-methylidene)-N′-(7-morpholin-4-yl-3-pyridin-2-yl-pyrazolo[1,5-a]pyrimidin-5-yl)-hydrazine] |  | 6.38 | < 5.00 |
| C(=N\Nc1cc(N2CCOCC2)n2nc(-c3ccccn3)cc2n1)/c1c[nH]c2ccccc12 [Compound 36, N-(1H-indol-3-yl-methylidene)-N′-(7-morpholin-4-yl-2-pyridin-2-yl-pyrazolo[1,5-a]pyrimidin-5-yl)-hydrazine] |  | 8.15 | < 5.00 |
| Cc1cccc(/C=N/Nc2cc(N3CCOCC3)n3nc(-c4ccc(N5CCSCC5)cc4)cc3n2)c1 [Compound 69, N-(3-methyl-benzylidene)-N′-{7-morpholin-4-yl-2-(4-thiomorpholin-4-yl-phenyl)-pyrazolo[1,5-a]pyrimidin-5-yl}-hydrazine] |  | 8.09 | < 5.00 |
| Nc1cccc(/C=N/Nc2cc(N3CCOCC3)n3nc(-c4ccccc4)cc3n2)c1 [Compound 140, N-(3-amino-benzylidene)-N-(7-morpholin-4-yl-2-phenyl-pyrazolo[1,5-a]pyrimidin-5-yl)-hydrazine] |  | 6.77 | < 5.00 |
| C(=N\Nc1cc(N2CCOCC2)n2nc(-c3ccccc3)cc2n1)/c1c[nH]c2ccccc12 [Compound 2, N-(1H-indol-3-yl-methylidene)-N′-(7-morpholin-4-yl-2-phenyl-pyrazolo[1,5-a]pyrimidin-5-yl)-hydrazine] |  | 7.48 | < 5.00 |
| COc1ccc(-c2cc3nc(N/N=C/c4cccc(C)c4)cc(N4CCOCC4)n3n2)cc1 [Compound 15, N-{2-(4-methoxy-phenyl)-7-morpholin-4-yl-pyrazolo[1,5-a]pyrimidin-5-yl}-N′-(3-methyl-benzylidene)-hydrazine] |  | 7.96 | < 5.00 |
| Cc1ccc(-c2cc3nc(N/N=C/c4c[nH]c5ccccc45)cc(N4CCOCC4)n3n2)cc1 [Compound 4, N-(1H-indol-3-yl-methylidene)-N′-{2-(4-methylphenyl)-7-morpholin-4-yl-pyrazolo[1,5-a]pyrimidin-5-yl}-hydrazine] |  | 7.64 | < 5.00 |
| CCCCC(=O)N1CCN(c2ccc(-c3cc4nc(N/N=C/c5cccc(C)c5)cc(N5CCOCC5)n4n3)cc2)CC1 [Compound 31, N-(3-methyl-benzylidene)-N′-{7-morpholin-4-yl-2-[4-(1-oxo-pentan-1-yl)piperazin-1-yl-phenyl]-pyrazolo[1,5-a]pyrimidin-5-yl}-hydrazine] |  | 7.74 | < 5.00 |
